# Test results published in the NIST ThermoML archive (doi:10.1016/j.jct.2014.03.001).
# ± gives the expanded uncertainty stated by the source.
# Test: mn = molality of the nth substance listed, in mol/kg
# Settings: 84.51 kPa, Liquid; for speed of sound: Frequency=3 MHz, Sing-around technique in a fixed-path interferometer; for mass density: Vibrating tube method
smiles,measurement,setting,value
CCCCCCCCCCCCn1cc[n+](C)c1.[Br-] [1-dodecyl-3-methylimidazolium bromide] + O,speed of sound,"303.15 K, m1 = 0.00233",1509.7 ± 1.2 m/s
same,speed of sound,"303.15 K, m1 = 0.00278",1509.7 ± 1.2 m/s
same,speed of sound,"303.15 K, m1 = 0.00301",1509.8 ± 1.2 m/s
same,speed of sound,"303.15 K, m1 = 0.00467",1510 ± 1.2 m/s
same,speed of sound,"303.15 K, m1 = 0.00501",1510 ± 1.2 m/s
same,speed of sound,"303.15 K, m1 = 0.00665",1510.4 ± 1.2 m/s
same,speed of sound,"303.15 K, m1 = 0.00889",1511 ± 1.3 m/s
same,speed of sound,"303.15 K, m1 = 0.00906",1511 ± 1.3 m/s
same,speed of sound,"303.15 K, m1 = 0.01229",1511.2 ± 1.2 m/s
same,speed of sound,"303.15 K, m1 = 0.01511",1511.2 ± 1.2 m/s
same,speed of sound,"303.15 K, m1 = 0.01804",1511.2 ± 1.2 m/s
same,speed of sound,"303.15 K, m1 = 0.02431",1511.1 ± 1.2 m/s
same,speed of sound,"303.15 K, m1 = 0.03042",1511 ± 1.2 m/s
same,speed of sound,"303.15 K, m1 = 0.04595",1510.9 ± 1.2 m/s
same,speed of sound,"303.15 K, m1 = 0.06124",1510.8 ± 1.2 m/s
same,speed of sound,"303.15 K, m1 = 0.07667",1510.7 ± 1.2 m/s
same,speed of sound,"303.15 K, m1 = 0.098",1510.5 ± 1.2 m/s
same,speed of sound,"303.15 K, m1 = 0.1095",1510.5 ± 1.2 m/s
same,mass density,"303.15 K, m1 = 0.00233",995.721 ± 0.11 kg/m3
same,mass density,"303.15 K, m1 = 0.00278",995.74 ± 0.11 kg/m3
same,mass density,"303.15 K, m1 = 0.00301",995.746 ± 0.11 kg/m3
same,mass density,"303.15 K, m1 = 0.00467",995.801 ± 0.11 kg/m3
same,mass density,"303.15 K, m1 = 0.00501",995.814 ± 0.11 kg/m3
same,mass density,"303.15 K, m1 = 0.00665",995.873 ± 0.11 kg/m3
same,mass density,"303.15 K, m1 = 0.00889",995.95 ± 0.12 kg/m3
same,mass density,"303.15 K, m1 = 0.00906",995.955 ± 0.11 kg/m3
same,mass density,"303.15 K, m1 = 0.01229",996.058 ± 0.11 kg/m3
same,mass density,"303.15 K, m1 = 0.01511",996.137 ± 0.11 kg/m3
same,mass density,"303.15 K, m1 = 0.01804",996.207 ± 0.11 kg/m3
same,mass density,"303.15 K, m1 = 0.02431",996.381 ± 0.11 kg/m3
same,mass density,"303.15 K, m1 = 0.03042",996.556 ± 0.11 kg/m3
same,mass density,"303.15 K, m1 = 0.04595",996.985 ± 0.11 kg/m3
same,mass density,"303.15 K, m1 = 0.06124",997.402 ± 0.11 kg/m3
same,mass density,"303.15 K, m1 = 0.07667",997.814 ± 0.11 kg/m3
same,mass density,"303.15 K, m1 = 0.098",998.386 ± 0.11 kg/m3
same,mass density,"303.15 K, m1 = 0.1095",998.705 ± 0.11 kg/m3
same,speed of sound,"308.15 K, m1 = 0.00233",1520.3 ± 1.2 m/s
same,speed of sound,"308.15 K, m1 = 0.00278",1520.2 ± 1.2 m/s
same,speed of sound,"308.15 K, m1 = 0.00301",1520.4 ± 1.2 m/s
same,speed of sound,"308.15 K, m1 = 0.00467",1520.6 ± 1.2 m/s
same,speed of sound,"308.15 K, m1 = 0.00501",1520.6 ± 1.2 m/s
same,speed of sound,"308.15 K, m1 = 0.00665",1520.9 ± 1.2 m/s
same,speed of sound,"308.15 K, m1 = 0.00889",1521.4 ± 1.3 m/s
same,speed of sound,"308.15 K, m1 = 0.00906",1521.4 ± 1.3 m/s
same,speed of sound,"308.15 K, m1 = 0.01229",1521.7 ± 1.2 m/s
same,speed of sound,"308.15 K, m1 = 0.01511",1521.6 ± 1.2 m/s
same,speed of sound,"308.15 K, m1 = 0.01804",1521.6 ± 1.2 m/s
same,speed of sound,"308.15 K, m1 = 0.02431",1521.5 ± 1.2 m/s
same,speed of sound,"308.15 K, m1 = 0.03042",1521.4 ± 1.2 m/s
same,speed of sound,"308.15 K, m1 = 0.04595",1521.1 ± 1.2 m/s
same,speed of sound,"308.15 K, m1 = 0.06124",1520.8 ± 1.2 m/s
same,speed of sound,"308.15 K, m1 = 0.07667",1520.7 ± 1.2 m/s
same,speed of sound,"308.15 K, m1 = 0.098",1520.3 ± 1.2 m/s
same,speed of sound,"308.15 K, m1 = 0.1095",1520.1 ± 1.2 m/s
same,mass density,"308.15 K, m1 = 0.00233",994.1 ± 0.11 kg/m3
same,mass density,"308.15 K, m1 = 0.00278",994.121 ± 0.11 kg/m3
same,mass density,"308.15 K, m1 = 0.00301",994.125 ± 0.11 kg/m3
same,mass density,"308.15 K, m1 = 0.00467",994.18 ± 0.11 kg/m3
same,mass density,"308.15 K, m1 = 0.00501",994.193 ± 0.11 kg/m3
same,mass density,"308.15 K, m1 = 0.00665",994.246 ± 0.11 kg/m3
same,mass density,"308.15 K, m1 = 0.00889",994.32 ± 0.12 kg/m3
same,mass density,"308.15 K, m1 = 0.00906",994.325 ± 0.11 kg/m3
same,mass density,"308.15 K, m1 = 0.01229",994.423 ± 0.11 kg/m3
same,mass density,"308.15 K, m1 = 0.01511",994.502 ± 0.11 kg/m3
same,mass density,"308.15 K, m1 = 0.01804",994.571 ± 0.11 kg/m3
same,mass density,"308.15 K, m1 = 0.02431",994.739 ± 0.11 kg/m3
same,mass density,"308.15 K, m1 = 0.03042",994.91 ± 0.11 kg/m3
same,mass density,"308.15 K, m1 = 0.04595",995.323 ± 0.11 kg/m3
same,mass density,"308.15 K, m1 = 0.06124",995.729 ± 0.11 kg/m3
same,mass density,"308.15 K, m1 = 0.07667",996.129 ± 0.11 kg/m3
same,mass density,"308.15 K, m1 = 0.098",996.685 ± 0.11 kg/m3
same,mass density,"308.15 K, m1 = 0.1095",996.993 ± 0.11 kg/m3
same,speed of sound,"313.15 K, m1 = 0.00233",1529.3 ± 1.2 m/s
same,speed of sound,"313.15 K, m1 = 0.00278",1529.3 ± 1.2 m/s
same,speed of sound,"313.15 K, m1 = 0.00301",1529.4 ± 1.2 m/s
same,speed of sound,"313.15 K, m1 = 0.00467",1529.6 ± 1.2 m/s
same,speed of sound,"313.15 K, m1 = 0.00501",1529.6 ± 1.2 m/s
same,speed of sound,"313.15 K, m1 = 0.00665",1529.8 ± 1.2 m/s
same,speed of sound,"313.15 K, m1 = 0.00889",1530.3 ± 1.2 m/s
same,speed of sound,"313.15 K, m1 = 0.00906",1530.3 ± 1.2 m/s
same,speed of sound,"313.15 K, m1 = 0.01229",1530.6 ± 1.2 m/s
same,speed of sound,"313.15 K, m1 = 0.01511",1530.5 ± 1.2 m/s
same,speed of sound,"313.15 K, m1 = 0.01804",1530.5 ± 1.2 m/s
same,speed of sound,"313.15 K, m1 = 0.02431",1530.3 ± 1.2 m/s
same,speed of sound,"313.15 K, m1 = 0.03042",1530.1 ± 1.2 m/s
same,speed of sound,"313.15 K, m1 = 0.04595",1529.7 ± 1.2 m/s
same,speed of sound,"313.15 K, m1 = 0.06124",1529.3 ± 1.2 m/s
same,speed of sound,"313.15 K, m1 = 0.07667",1529 ± 1.2 m/s
same,speed of sound,"313.15 K, m1 = 0.098",1528.5 ± 1.2 m/s
same,speed of sound,"313.15 K, m1 = 0.1095",1528.2 ± 1.2 m/s
same,mass density,"313.15 K, m1 = 0.00233",992.28 ± 0.11 kg/m3
same,mass density,"313.15 K, m1 = 0.00278",992.299 ± 0.11 kg/m3
same,mass density,"313.15 K, m1 = 0.00301",992.305 ± 0.11 kg/m3
same,mass density,"313.15 K, m1 = 0.00467",992.357 ± 0.11 kg/m3
same,mass density,"313.15 K, m1 = 0.00501",992.368 ± 0.11 kg/m3
same,mass density,"313.15 K, m1 = 0.00665",992.422 ± 0.11 kg/m3
same,mass density,"313.15 K, m1 = 0.00889",992.489 ± 0.11 kg/m3
same,mass density,"313.15 K, m1 = 0.00906",992.495 ± 0.11 kg/m3
same,mass density,"313.15 K, m1 = 0.01229",992.591 ± 0.11 kg/m3
same,mass density,"313.15 K, m1 = 0.01511",992.671 ± 0.11 kg/m3
same,mass density,"313.15 K, m1 = 0.01804",992.736 ± 0.11 kg/m3
same,mass density,"313.15 K, m1 = 0.02431",992.896 ± 0.11 kg/m3
same,mass density,"313.15 K, m1 = 0.03042",993.064 ± 0.11 kg/m3
same,mass density,"313.15 K, m1 = 0.04595",993.467 ± 0.11 kg/m3
same,mass density,"313.15 K, m1 = 0.06124",993.86 ± 0.11 kg/m3
same,mass density,"313.15 K, m1 = 0.07667",994.248 ± 0.11 kg/m3
same,mass density,"313.15 K, m1 = 0.098",994.79 ± 0.11 kg/m3
same,mass density,"313.15 K, m1 = 0.1095",995.087 ± 0.11 kg/m3
